Test results published in patent publication US6514980B1, “Nucleoside analogs in combination therapy of herpes simplex infections” (Novartis International Pharmaceutical Ltd., priority 1996, dated 2003).

Test system: HSV-1 (SC16)
Assay: Cutaneous HSV-1 infection of the ear pinna in mice immunosuppressed with Cyclosporin A (second experiment)
Assay type: in vivo
Conditions: BALB/c mice immunosupressed with Cyclosporin A (second experiment) compared with immunocompetant mice (first experiment); oral antiviral treatment
Description: A cutaneous infection was established by inoculation of the ear pinnae of mice with HSV-1 (SC16) and the effects of oral famciclovir and valaciclovir on the latent virus infection was investigated.
BALB/c female mice (Bantin and Kingman, Kingston, Hull, UK) were purchased at 3 to 4 weeks old and inoculated one week later. Virus suspension (10 ul) containing 5×10^4 p.f.u. were inoculated into the skin of the left ear pinna. Skin thickness was measured daily in individual mice by means of an Engineers' micrometer screw gauge. (ref. Nash et al, 1980, J. Gen. Virol. 48, 351-357). Mice were killed daily and tissues removed for virus assays. Other mice were […]. The trigeminal ganglia and cervical dorsal root ganglia were removed and co-cultivated. Those cultures showing virus replication were recorded as positive.
In a first experiment, groups of immunocompetant mice were untreated (control), antiviral treatment was initiated on days 1, 2, 3, 4 or 5 post-infection (p.i.) and ceased on day 10 p.i.. The compounds were administered ad libitum in the drinking water, at 1 mg/ml (approximately 100 mg/kg/day).
In a second experiment, mice were immunosupressed with Cyclosporin A (CyA) from day-2 to day=10 (day 0 being the day of infection). […]

Question: How did the “effect on virus replication and disease” value turn out when `CC(=O)OCC(CCn1cnc2cnc(N)nc21)COC(C)=O` [famciclovir] was run?
Answer: significantly greater effect

Question: Which “effect on virus replication and disease” value does the source give for `CC(C)[C@H](N)C(=O)OCCOCn1cnc2c(=O)[nH]c(N)nc21` [valaciclovir] here?
Answer: significantly greater effect
